In brackets after ≈: the same amount, converted by molar mass.
Columns and labels:
Format in all cases: cell-based
Asbergillus niger ZM35 = experiment: MIC, agar diffusion, Asbergillus niger ZM35; conditions: Aspergillus niger, read-out: in vitro activities MIC
Source text: (§1) In vitro investigations have shown a relatively high potency of compounds of the invention against all bacteria including gram-positive and gram-negative strains (Staphylococci, Streptococci, Corynebacteriae, Mycobacteriae, Proteus, Propionibacterium, Pseudomonas, Neisseriae, E. coli) and fungal strains (Candida and Aspergillus). […] In addition, the studies of post-antibiotic effects point towards a strong bactericidal effect of the compounds of the invention. […] The potency of new polyaminated fusidic acid analogues is estimated by comparing the inhibition of growth of different microorganisms produced by known concentrations of the analogue to be examined and a reference compound such as fusidic acid. The microbiological assay set up is in agreement with the European Pharmacopoeia 3rd edition (1997). It is an agar diffusion method where the same volume of the tested solution is added to cavities in agar. The inhibition zones are function of the concentration of the fusidic acid analogue used. All assays are run with fusidic acid as reference substance.

S. aureus CJ200 = experiment: MIC, agar diffusion, S. aureus CJ200; conditions: Staphylococcus aureus, read-out: in vitro activities MIC
Source text: as §1

[1] = system: Saccaromyces cervisiae ZZ7; experiment: MIC, agar diffusion, Saccaromyces cervisiae ZZ7; conditions: Saccharomyces cerevisiae, read-out: in vitro activities MIC
Source text: as §1

[2] = system: Propionibacterium acnes FN33; experiment: MIC, agar diffusion, Propionibacterium acnes FN33; conditions: Cutibacterium acnes, read-out: in vitro activities MIC
Source text: as §1

Candida albicans ZA = experiment: MIC, agar diffusion, Candida albicans ZA; conditions: read-out: in vitro activities MIC
Source text: as §1

S. aureus CJ234F = experiment: MIC, agar diffusion, S. aureus CJ234F; conditions: Staphylococcus aureus; S. aureus CJ234F (MRSA, Fus. resistant); read-out: in vitro activities MIC
Source text: as §1

[3] = system: Corynebacterium xerosis FF; experiment: MIC, agar diffusion, Corynebacterium xerosis FF; conditions: read-out: in vitro activities MIC
Source text: as §1

[4] = system: Streptococcus faecium EI19; experiment: MIC, agar diffusion, Streptococcus faecium EI19; conditions: Enterococcus faecium; Streptococcus faecium EI19 (Penicillin resistant); read-out: in vitro activities MIC
Source text: as §1

E. coli HA165 = experiment: MIC, agar diffusion, E. coli HA165; conditions: Escherichia coli, read-out: in vitro activities MIC
Source text: as §1

S. aureus N6 = experiment: MIC, agar diffusion, S. aureus N6; conditions: Staphylococcus aureus; S. aureus N6 (Fus. resistant); read-out: in vitro activities MIC
Source text: as §1

S. aureus CJ247 = experiment: MIC, agar diffusion, S. aureus CJ247; conditions: Staphylococcus aureus, read-out: in vitro activities MIC
Source text: as §1

[5] = system: Streptococcus pyogenes EC88; experiment: MIC, agar diffusion, Streptococcus pyogenes EC88; conditions: read-out: in vitro activities MIC
Source text: as §1

S. epidermis CK5 = experiment: MIC, agar diffusion, S. epidermis CK5; conditions: Staphylococcus epidermidis, read-out: in vitro activities MIC
Source text: as §1

[6] = system: Pseudomonas aeruginosa BA17; experiment: MIC, agar diffusion, Pseudomonas aeruginosa BA17; conditions: read-out: in vitro activities MIC
Source text: as §1

SMILES | MIC (Asbergillus niger ZM35) | MIC (S. aureus CJ200) | MIC [1] | MIC [2] | MIC (Candida albicans ZA) | MIC (S. aureus CJ234F) | MIC [3] | MIC [4] | MIC (E. coli HA165) | MIC (S. aureus N6) | MIC (S. aureus CJ247) | MIC [5] | MIC (S. epidermis CK5) | MIC [6]
CC(=O)O[C@H]1C[C@@]2(C)C(C[C@@H](O)C3[C@@]4(C)CC[C@@H](O)[C@@H](C)C4CC[C@@]32C)[C@@H]1[C@H](CCCC(C)C)C(=O)NCCCCNCCCN (stereo partly drawn) [Compound 121, 21-N-{4′-[(3′-aminopropyl)amino]butyl}-17R,20S,24,25-tetrahydrofusid-21-amide] | 64 µg/mL (≈ 98.8 µM) | 4 µg/mL (≈ 6.17 µM) | 16 µg/mL (≈ 24.7 µM) | 4 µg/mL (≈ 6.17 µM) | 16 µg/mL (≈ 24.7 µM) | 4 µg/mL (≈ 6.17 µM) | 4 µg/mL (≈ 6.17 µM) | 16 µg/mL (≈ 24.7 µM) | 16 µg/mL (≈ 24.7 µM) | 16 µg/mL (≈ 24.7 µM) | 4 µg/mL (≈ 6.17 µM) | 16 µg/mL (≈ 24.7 µM) | 4 µg/mL (≈ 6.17 µM) | –
CC(=O)O[C@H]1C[C@@]2(C)C(C[C@@H](O)C3[C@@]4(C)CC[C@@H](O)[C@@H](C)C4CC[C@@]32C)[C@@H]1[C@H](CCCC(C)C)C(=O)NCCCCNCCCNCCCCN (stereo partly drawn) [Compound 123, 21-N-[4′-({3′-[(4′-aminobutyl)amino]propyl}amino)butyl]-17R,20S,24,25-tetrahydrofasid-21-amide] | 4 µg/mL (≈ 5.56 µM) | 4 µg/mL (≈ 5.56 µM) | 16 µg/mL (≈ 22.2 µM) | 4 µg/mL (≈ 5.56 µM) | 16 µg/mL (≈ 22.2 µM) | 4 µg/mL (≈ 5.56 µM) | 4 µg/mL (≈ 5.56 µM) | 4 µg/mL (≈ 5.56 µM) | 16 µg/mL (≈ 22.2 µM) | 4 µg/mL (≈ 5.56 µM) | 4 µg/mL (≈ 5.56 µM) | 4 µg/mL (≈ 5.56 µM) | 4 µg/mL (≈ 5.56 µM) | 16 µg/mL (≈ 22.2 µM)
CC(=O)O[C@H]1C[C@@]2(C)C(C[C@@H](O)C3[C@@]4(C)CC[C@@H](O)[C@@H](C)C4CC[C@@]32C)[C@@H]1[C@H](CCCC(C)C)C(=O)NCCCNCCCCNCCCN (stereo partly drawn) [Compound 125, 21-N-[3′-({4′-[(3′-aminopropyl)amino]butyl}amino)propyl]-17R,20S,24,25-tetrahydrofusid-21-amide] | 16 µg/mL (≈ 22.7 µM) | 1 µg/mL (≈ 1.42 µM) | 16 µg/mL (≈ 22.7 µM) | 1 µg/mL (≈ 1.42 µM) | 16 µg/mL (≈ 22.7 µM) | 1 µg/mL (≈ 1.42 µM) | 1 µg/mL (≈ 1.42 µM) | 16 µg/mL (≈ 22.7 µM) | 16 µg/mL (≈ 22.7 µM) | 1 µg/mL (≈ 1.42 µM) | 1 µg/mL (≈ 1.42 µM) | 4 µg/mL (≈ 5.67 µM) | 1 µg/mL (≈ 1.42 µM) | 16 µg/mL (≈ 22.7 µM)
CC(=O)O[C@H]1C[C@@]2(C)C(CCC3[C@@]4(C)CC[C@@H](O)[C@@H](C)C4CC[C@@]32C)[C@@H]1[C@H](CCCC(C)C)C(=O)NCCCNCCCN (some centres unmarked) [Compound 131] | 16 µg/mL (≈ 25.9 µM) | 4 µg/mL (≈ 6.47 µM) | 16 µg/mL (≈ 25.9 µM) | 4 µg/mL (≈ 6.47 µM) | 16 µg/mL (≈ 25.9 µM) | 4 µg/mL (≈ 6.47 µM) | 4 µg/mL (≈ 6.47 µM) | 4 µg/mL (≈ 6.47 µM) | 16 µg/mL (≈ 25.9 µM) | 4 µg/mL (≈ 6.47 µM) | 4 µg/mL (≈ 6.47 µM) | 4 µg/mL (≈ 6.47 µM) | 4 µg/mL (≈ 6.47 µM) | 4 µg/mL (≈ 6.47 µM)
CC(=O)O[C@H]1C[C@@]2(C)C(CCC3[C@@]4(C)CC[C@@H](O)[C@@H](C)C4CC[C@@]32C)[C@@H]1[C@H](CCCC(C)C)C(=O)NCCNCCCNCCN (some centres unmarked) [Compound 133] | 32 µg/mL (≈ 49.5 µM) | 4 µg/mL (≈ 6.18 µM) | 32 µg/mL (≈ 49.5 µM) | 4 µg/mL (≈ 6.18 µM) | 32 µg/mL (≈ 49.5 µM) | 4 µg/mL (≈ 6.18 µM) | 4 µg/mL (≈ 6.18 µM) | 4 µg/mL (≈ 6.18 µM) | 16 µg/mL (≈ 24.7 µM) | 4 µg/mL (≈ 6.18 µM) | 4 µg/mL (≈ 6.18 µM) | 4 µg/mL (≈ 6.18 µM) | 4 µg/mL (≈ 6.18 µM) | 16 µg/mL (≈ 24.7 µM)
CC(C)CCCC(C(=O)NCCCNCCCCNCCCN)[C@@H]1CC[C@@]2(C)C1C[C@@H](O)C1[C@@]3(C)CC[C@@H](O)[C@@H](C)C3CC[C@@]12C (stereo partly drawn) [Compound 146, 21-N-{[3′-({4′-[(3′-aminopropyl)amino]butyl}amino)propyl]}-16-desacetoxy-17R,20S,24,25-tetrahydrofusid-21-amide] | > 125 µg/mL | 1 µg/mL (≈ 1.55 µM) | 4 µg/mL (≈ 6.18 µM) | 1 µg/mL (≈ 1.55 µM) | > 125 µg/mL | 1 µg/mL (≈ 1.55 µM) | 1 µg/mL (≈ 1.55 µM) | 1 µg/mL (≈ 1.55 µM) | 4 µg/mL (≈ 6.18 µM) | 1 µg/mL (≈ 1.55 µM) | 1 µg/mL (≈ 1.55 µM) | 1 µg/mL (≈ 1.55 µM) | 1 µg/mL (≈ 1.55 µM) | 16 µg/mL (≈ 24.7 µM)
CC(C)CCCC(C(=O)NCCNCCCNCCN)[C@H]1CC[C@@]2(C)C1CCC1[C@@]3(C)CC[C@@H](O)[C@@H](C)C3CC[C@@]12C (some centres unmarked) [Compound 152, 21-N-[2′-({3′-[(2′-aminoethyl)amino]propyl}amino)ethyl]-11-desoxy-16-desacetoxy-17S,20,24,25-tetrahydrofusid-21-amide] | > 125 µg/mL | 4 µg/mL (≈ 6.79 µM) | > 125 µg/mL | – | > 125 µg/mL | 4 µg/mL (≈ 6.79 µM) | 1 µg/mL (≈ 1.7 µM) | – | 4 µg/mL (≈ 6.79 µM) | 4 µg/mL (≈ 6.79 µM) | 4 µg/mL (≈ 6.79 µM) | – | 2 µg/mL (≈ 3.4 µM) | 8 µg/mL (≈ 13.6 µM)
CC(C)CCCC(C(=O)NCCCCNCCCN)[C@H]1CC[C@@]2(C)C1CCC1[C@@]3(C)CC[C@@H](O)[C@@H](C)C3CC[C@@]12C (some centres unmarked) [Compound 154, 21-N-{4′-[(3′-aminopropyl)amino]butyl}-11-desoxy-16-desacetoxy-17S,20,24,25-tetrahydrofusid-21-amide] | > 125 µg/mL | 4 µg/mL (≈ 6.97 µM) | > 125 µg/mL | – | > 125 µg/mL | 4 µg/mL (≈ 6.97 µM) | 0.5 µg/mL (≈ 0.871 µM) | – | 8 µg/mL (≈ 13.9 µM) | 4 µg/mL (≈ 6.97 µM) | 4 µg/mL (≈ 6.97 µM) | – | 1 µg/mL (≈ 1.74 µM) | 16 µg/mL (≈ 27.9 µM)
CC(=O)O[C@H]1C[C@@]2(C)C(CCC3[C@@]4(C)CC[C@@H](OS(=O)(=O)O)[C@@H](C)C4CC[C@@]32C)[C@@H]1[C@H](CCCC(C)C)C(=O)NCCCNCCCCNCCCN (some centres unmarked) [Compound 177, 21-N-[3′-({4′-[(3′-aminopropyl)amino]butyl}amino)propyl]-3-OSO3-11-desoxy-17,20,24,25-tetrahydrofusid-21-amide] | 16 µg/mL (≈ 20.8 µM) | 1 µg/mL (≈ 1.3 µM) | 125 µg/mL (≈ 163 µM) | 1 µg/mL (≈ 1.3 µM) | 64 µg/mL (≈ 83.2 µM) | 1 µg/mL (≈ 1.3 µM) | 1 µg/mL (≈ 1.3 µM) | – | 16 µg/mL (≈ 20.8 µM) | 4 µg/mL (≈ 5.2 µM) | 1 µg/mL (≈ 1.3 µM) | 4 µg/mL (≈ 5.2 µM) | 1 µg/mL (≈ 1.3 µM) | 16 µg/mL (≈ 20.8 µM)
CC(=O)O[C@H]1C[C@@]2(C)C(CCC3[C@@]4(C)CC[C@@H](OS(=O)(=O)O)[C@@H](C)C4CC[C@@]32C)[C@@H]1[C@H](CCCC(C)C)C(=O)NCCCNCCCNCCCN (some centres unmarked) [Compound 180] | 4 µg/mL (≈ 5.3 µM) | 1 µg/mL (≈ 1.32 µM) | 125 µg/mL (≈ 166 µM) | 1 µg/mL (≈ 1.32 µM) | 64 µg/mL (≈ 84.8 µM) | 1 µg/mL (≈ 1.32 µM) | 1 µg/mL (≈ 1.32 µM) | – | 16 µg/mL (≈ 21.2 µM) | 1 µg/mL (≈ 1.32 µM) | 1 µg/mL (≈ 1.32 µM) | 16 µg/mL (≈ 21.2 µM) | 4 µg/mL (≈ 5.3 µM) | 64 µg/mL (≈ 84.8 µM)

Reference: patent US20030087887A1, “Novel fusidic acid derivatives” (priority 2001, published 2003)
